The subject of one test is MCF-7 (breast) cell line. As to the kind of experiment: MTT cytotoxic activity assay, MCF-7. The settings on record: for IC50: Homo sapiens, MCF7, 72 h. It counts as cell-based, human. How it is done: (§1) All the synthesized tricyclic pyrrolo[2,3-d]pyrimidines 8a–j and 10a–f were evaluated for their cytotoxic activity on cancer cell lines derived from the most common cancers: breast (MCF-7), cervical (HeLa), and colon (HT-29). Human cancer cell lines were treated with synthesized compounds, using doxorubicin (DOX) as a positive control, at concentrations of the compounds ranging from 0.001 to 6.561 μM. Cells were incubated at 37 °C for 72 h before measurement, and IC50 values were determined graphically. In our previous research, the cytotoxic activity of compounds 6a and 6b was also evaluated on the same human cancer cell lines used in the current study.
(§2) The MCF-7, HeLa, and HT-29 cell lines, obtained from the Chinese Type Culture Collection, CAS (Shanghai, China), were used as models for cytotoxicity screening. The samples were dissolved in dimethyl sulfoxide (DMSO) (50 μM) and stored at 4 °C. Cell viability was determined using the MTT assay. For the MTT assay, the target cells were seeded in 96-well plates and treated with the synthesized samples for 72 h. Then, 5 mg/mL MTT was added to the culture medium, and 10 μL/well was added. The plate was then incubated in the dark at 37 °C for 4 h. The medium was removed, and 100 μL of dimethyl sulfoxide was added per well. OD570 was measured using Spectra Max M5 (Molecular Devices, CA, USA). Cell viability (%) = ODcompound /ODDMSO × 100%. IC50 values were calculated using GraphPad Prism 9 (CA, USA) by nonlinear regression of the log-transformed data (X Log[X]), with the log (inhibitor) vs. normalized response-variable slope tool.
Background: Tetrazolium dyes change colour on reduction, which living cells bring about.

Test [1] relates to HT-29 (colon) cell line. As to the kind of experiment: MTT cytotoxic activity assay, HT-29. It counts as cell-based. As to conditions: Homo sapiens, 72 h. How it is done: as §1, §2
The test system of test [2] is HeLa (cervical) cell line. As to the kind of experiment: MTT cytotoxic activity assay, HeLa. It counts as cell-based, human. As to conditions: 72 h; for IC50: Homo sapiens, HeLa. The method, then: as §1, §2
The subject of test [3] is HeLa, MCF-7 and HT-29 cell lines. As to the kind of experiment: MTT cytotoxic activity, stated across the three cancer cell lines. As to conditions: span over HeLa, MCF-7, HT-29; for IC50: Homo sapiens, read-out: IC50 across all three cell lines. It counts as cell-based, human. The method, then: as §1, §2
Test [4] relates to HeLa (cervical) cell line. Set-up: method as in PMID 36197552. As to conditions: previous research ref 29; cited from earlier work.
The test system of test [5] is HT-29 (colon) cell line. Set-up: method as in PMID 36197552. The settings on record: previous research ref 29; cited from earlier work.
The test system of test [6] is human embryonic kidney (HEK-293) cells. As to the kind of experiment: Cytotoxicity on non-cancerous HEK-293 cells. As to conditions: HEK293, read-out: IC50 (±SD), HEK-293. It counts as cell-based. The method, then:
On the other hand, the inactivity of these leads on HeLa and MCF-7 cells (IC50 ≥ 50 µM) indicates specific tumor type selectivity. […] The selectivity index (SI) was then calculated as the ratio of the IC50 values for HEK-293 and HT-29 cells and is shown in Table 2.
as §2

The source of these data is PMC12299203, “Pyrrolopyrimidines: Design, Synthesis and Antitumor Properties of Novel Tricyclic Pyrrolo [2,3-d]pyrimidine Derivatives” (Molecules, 2025).

Structures are written as SMILES. Where two headings read alike, the source gives them in different places. Some results are limits rather than exact numbers.

The term IC50 denotes the point on the concentration scale where inhibition reaches its midpoint.

`Cn1c(-c2ccc(Cl)cc2)cc2/c(=N\c3ccc(F)cc3)n3c(nc21)CCCC3` [Compound 8b, (E)-2-(4-Chlorophenyl)-N-(4-fluorophenyl)-1-methyl-6,7,8,9-tetrahydropyrido[1,2-a]pyrrolo[2,3-d]pyrimidin-4(1H)-imine]: the IC50 (with MCF-7 (breast) cell line; with HT-29 (colon) cell line [1]; in test [2]) was not below 50 µM in each case.
`Cn1c(-c2ccc(Cl)cc2)cc2/c(=N\c3ccc(C(F)(F)F)cc3)n3c(nc21)CCCC3` [Compound 8e, (E)-2-(4-Chlorophenyl)-1-methyl-N-(4-(trifluoromethyl)phenyl)-6,7,8,9-tetrahydropyrido[1,2-a]pyrrolo[2,3-d]pyrimidin-4(1H)-imine]: the IC50 (in the test on MCF-7 (breast) cell line; in the test with HT-29 (colon) cell line [1]; in test [2]) was not below 50 µM throughout.
On to `Cn1c(-c2ccc(Br)cc2)c(Br)c2c(=O)n3c(nc21)CCCCC3` [Compound 10e, 3-Bromo-2-(4-bromophenyl)-1-methyl-1,6,7,8,9,10-hexahydro-4H-pyrrolo[2’,3’:4,5]pyrimido[1,2-a]azepin-4-one], for which the values for the half-maximal inhibitory concentration (IC50) (in the test with MCF-7 (breast) cell line; in the test on HT-29 (colon) cell line [1]; in test [2]) were not below 50 µM, 16 ± 0.75 µM and not below 50 µM, respectively. In addition, in test [3], the “IC50 across all three cell lines” value is given as “selective yet weaker activity”.
For the compound `Cn1c(-c2ccc(Br)cc2)cc2c(=O)n3c(nc21)CCCCC3` [Compound 6b, 2-(4-Bromophenyl)-1-methyl-1,6,7,8,9,10-hexahydro-4H-pyrrolo[2’,3’:4,5]pyrimido[1,2-a]azepin-4-one], the IC50 in test [4] was not below 50 µM; in the test on HT-29 (colon) cell line [5], 7.61 ± 0.31 µM.
Regarding `Cn1c(-c2ccc(Cl)cc2)c(Br)c2c(=O)n3c(nc21)CCCC3` [Compound 10b, 3-Bromo-2-(4-chlorophenyl)-1-methyl-6,7,8,9-tetrahydropyrido[1,2-a]pyrrolo[2,3-d]pyrimidin-4(1H)-one], in the test on MCF-7 (breast) cell line (72 h), the “IC50, MCF-7” value was “moderate activity”. For the same compound, the IC50 in the test with MCF-7 (breast) cell line is 20.1 ± 0.93 µM; with HT-29 (colon) cell line [1] it was not below 50 µM; in test [2] it was not below 50 µM. Further, the “IC50 across all three cell lines” value in test [3] is listed as “selective yet weaker activity”.
As to `Cn1c(-c2ccc(Cl)cc2)cc2/c(=N\c3ccccc3)n3c(nc21)CCCC3` [Compound 8a, (E)-2-(4-Chlorophenyl)-1-methyl-N-phenyl-6,7,8,9-tetrahydropyrido[1,2-a]pyrrolo[2,3-d]pyrimidin-4(1H)-imine], the half-maximal inhibitory concentration (IC50) in the test on MCF-7 (breast) cell line is not below 50 µM; in the test on HT-29 (colon) cell line [1], 19.2 ± 0.91 µM; in test [2] it was not below 50 µM.
`COc1cccc2c1C(=O)c1c(O)c3c(c(O)c1C2=O)C[C@@](O)(C(=O)CO)C[C@@H]3O[C@H]1C[C@H](N)[C@H](O)[C@H](C)O1` [DOX, doxorubicin, reference compound]: the IC50 was 0.18 ± 0.011 µM in the test with MCF-7 (breast) cell line, 0.18 to 0.94 µM in test [3], 0.82 ± 0.029 µM with HT-29 (colon) cell line [1] and 0.94 ± 0.016 µM in test [2].
Consider `Cn1c(-c2ccc(Cl)cc2)c(I)c2c(=O)n3c(nc21)CCCC3` [Compound 10c, 2-(4-Chlorophenyl)-3-iodo-1-methyl-6,7,8,9-tetrahydropyrido[1,2-a]pyrrolo[2,3-d]pyrimidin-4(1H)-one], for which the results for the IC50 (with MCF-7 (breast) cell line; in the test with HT-29 (colon) cell line [1]; in test [2]) were not below 50 µM, 34.2 ± 1.6 µM and not below 50 µM, respectively. The “IC50 across all three cell lines” value in test [3] is “selective yet weaker activity”.
In the case of `Cn1c(-c2ccc(Br)cc2)cc2/c(=N\c3ccc(Br)cc3)n3c(nc21)CCCCC3` [Compound 8i, (E)-N,2-Bis(4-bromophenyl)-1-methyl-1,6,7,8,9,10-hexahydro-4H-pyrrolo[2’,3’:4,5]pyrimido[1,2-a]azepin-4-imine], the IC50 (in the test with MCF-7 (breast) cell line; with HT-29 (colon) cell line [1]; in test [2]) was not below 50 µM in each case.
Consider `Cn1c(-c2ccc(Br)cc2)c(I)c2c(=O)n3c(nc21)CCCCC3` [Compound 10f, 2-(4-Bromophenyl)-3-iodo-1-methyl-1,6,7,8,9,10-hexahydro-4H-pyrrolo[2’,3’:4,5]pyrimido[1,2-a]azepin-4-one], for which the values for the IC50 (in the test with MCF-7 (breast) cell line; in the test on HT-29 (colon) cell line [1]; in test [2]) were not below 50 µM, 19 ± 0.92 µM and not below 50 µM, respectively. For the same compound, the “IC50 across all three cell lines” value in test [3] is given as “selective yet weaker activity”.
As for `Cn1c(-c2ccc(Cl)cc2)c(Cl)c2c(=O)n3c(nc21)CCCC3` [Compound 10a, 3-Chloro-2-(4-chlorophenyl)-1-methyl-6,7,8,9-tetrahydropyrido[1,2-a]pyrrolo[2,3-d]pyrimidin-4(1H)-one], the IC50 in the test with MCF-7 (breast) cell line is 27.5 ± 1.07 µM; in test [3], 23 to 28 µM; in the test on HT-29 (colon) cell line [1], 24.7 ± 1.13 µM; in test [2] it was 22.8 ± 0.98 µM. Also, in test [2], the “IC50, HeLa” value was “moderate activity”.
As to `Cn1c(-c2ccc(Br)cc2)c(Cl)c2c(=O)n3c(nc21)CCCCC3` [Compound 10d, 2-(4-Bromophenyl)-3-chloro-1-methyl-1,6,7,8,9,10-hexahydro-4H-pyrrolo[2’,3’:4,5]pyrimido[1,2-a]azepin-4-one], the IC50 (in the test on MCF-7 (breast) cell line; with HT-29 (colon) cell line [1]; in test [2]) was not below 50 µM throughout.
For the compound `Cn1c(-c2ccc(Cl)cc2)cc2c(=O)n3c(nc21)CCCC3` [Compound 6a, 2-(4-Chlorophenyl)-1-methyl-6,7,8,9-tetrahydropyrido[1,2-a]pyrrolo[2,3-d]pyrimidin-4(1H)-one], the figures for the IC50 (in test [4]; with HT-29 (colon) cell line [5]) were 6.55 ± 0.31 µM and 24 ± 0.47 µM, respectively.
As for `Cn1c(-c2ccc(Cl)cc2)cc2/c(=N\c3ccc(Cl)cc3)n3c(nc21)CCCC3` [Compound 8c, (E)-N,2-Bis(4-chlorophenyl)-1-methyl-6,7,8,9-tetrahydropyrido[1,2-a]pyrrolo[2,3-d]pyrimidin-4(1H)-imine], the IC50 (in the test on MCF-7 (breast) cell line; in the test on HT-29 (colon) cell line [1]; in test [2]) was not below 50 µM in each case.
As to `Cn1c(-c2ccc(Cl)cc2)cc2/c(=N\c3ccc(Br)cc3)n3c(nc21)CCCC3` [Compound 8d, (E)-N-(4-Bromophenyl)-2-(4-chlorophenyl)-1-methyl-6,7,8,9-tetrahydropyrido[1,2-a]pyrrolo[2,3-d]pyrimidin-4(1H)-imine], the IC50 (in the test on MCF-7 (breast) cell line; in the test on HT-29 (colon) cell line [1]; in test [2]) was not below 50 µM each time.
Consider `Cn1c(-c2ccc(Br)cc2)cc2/c(=N\c3ccc(C(F)(F)F)cc3)n3c(nc21)CCCCC3` [Compound 8j, (E)-2-(4-Bromophenyl)-1-methyl-N-(4-(trifluoromethyl)phenyl)-1,6,7,8,9,10-hexahydro-4H-pyrrolo[2’,3’:4,5]pyrimido[1,2-a]azepin-4-imine], for which the IC50 (in the test with MCF-7 (breast) cell line; with HT-29 (colon) cell line [1]; in test [2]) was not below 50 µM each time.
In the case of `Cn1c(-c2ccc(Br)cc2)cc2/c(=N\c3ccc(Cl)cc3)n3c(nc21)CCCCC3` [Compound 8h, (E)-2-(4-Bromophenyl)-N-(4-chlorophenyl)-1-methyl-1,6,7,8,9,10-hexahydro-4H-pyrrolo[2’,3’:4,5]pyrimido[1,2-a]azepin-4-imine], the IC50 (with MCF-7 (breast) cell line; with HT-29 (colon) cell line [1]; in test [2]) was not below 50 µM each time.
Regarding `Cn1c(-c2ccc(Br)cc2)cc2/c(=N\c3ccccc3)n3c(nc21)CCCCC3` [Compound 8f, (E)-2-(4-Bromophenyl)-1-methyl-N-phenyl-1,6,7,8,9,10-hexahydro-4H-pyrrolo[2’,3’:4,5]pyrimido[1,2-a]azepin-4-imine], the IC50 with MCF-7 (breast) cell line was not below 50 µM; in test [6] it was 195 ± 0.07 µM; in the test on HT-29 (colon) cell line [1], 4.55 ± 0.23 µM; in test [2], not below 50 µM.
As to `Cn1c(-c2ccc(Br)cc2)cc2/c(=N\c3ccc(F)cc3)n3c(nc21)CCCCC3` [Compound 8g, (E)-2-(4-Bromophenyl)-N-(4-fluorophenyl)-1-methyl-1,6,7,8,9,10-hexahydro-4H-pyrrolo[2’,3’:4,5]pyrimido[1,2-a]azepin-4-imine], the IC50 in the test with MCF-7 (breast) cell line was not below 50 µM; in test [6] it was 169 ± 0.1 µM; with HT-29 (colon) cell line [1], 4.01 ± 0.2 µM; in test [2], not below 50 µM.
